Source: PMC11653243, “Enhancing Phototoxicity in BODIPY‐Perylene Charge Transfer Dyads by Combined Iodination and Mesylation” (Chemistry (Weinheim an Der Bergstrasse, Germany), 2024)
Where “and” joins values, the source holds several entries; their conditions need not be identical. Equal entries are not always repeated.

How the values were obtained:
CHO cells [1] = experiment: Cellular uptake and co-localisation by confocal microscopy; format: cell-based, Chinese Hamster; settings: ER Tracker 1 µM, 45 min
Description: (§1) The intracellular uptake of the BODIPY derivatives was assessed in two mammalian cell lines, CHO (non‐cancer) and MCF‐7 (cancer). […] B2P and B2PI were studied following 4 h and 17 h incubation in MCF‐7 cells with 10 μM of each BODIPY derivative. A 17 h incubation was selected to allow for adequate cell uptake of the complex, ensuring sufficient brightness for confocal imaging while minimising cell toxicity.
(§2) Across all four compounds uptake of the BODIPYs led to extremely bright and highly punctate staining from within the cells. As all of the BODIPY‐perylene probes emit minimally from aqueous media including cell culture media (Figure S20) the bright emission is attributed to localisation of the complex to non‐aqueous domains, i. e. organelle membranes or to lipid droplets (LDs). To identify which, co‐localisation studies with targeted probes were completed. CHO and MCF‐7 cells were treated with B2P, B2PI, MB2P or MB2PI and co‐stained with specific organelle markers including LD probes; PyLa−C17Cer and BODIPY 493/503, an endoplasmic reticulum stain; ER Tracker Blue‐White and a lysosomal stain; LysoTracker Deep Red. Pyla‐C17Cer was previously published and localises in both the ER and LDs.[41] Cellular uptake of B2PI was recently reported in MCF‐7 cells, though localisation was not explored.[25]
(§3) MCF‐7 and CHO cells were treated with B2P, MB2P, B2PI or MB2PI for 17 h and co‐stained with a number of dyes for co‐staining including LysoTracker Deep Red, ER Tracker Blue/White, PyLa−C17Cer, BODIPY 493/503 and H2DCFDA. Cells were imaged in phenol red free media using a Leica DMi8 confocal microscope with a 63x or 100x oil immersion lens and a heated state at 37 °C.
(§4) Uptake in Live Cell Monolayers
(§5) CHO cells were incubated in 75cm2 cell culture flasks (Corning) with DMEM/F-12 Ham medium (Sigma-Aldrich) with L-glutamine and sodium bicarbonate supplemented with 10% fetal bovine serum (FBS) (Gibco) and 1% penicillin-streptomycin (Sigma-Aldrich). MCF-7 cells were incubated in 25cm2 cell culture flasks with RPMI-1640 medium (Sigma-Aldrich) with L-glutamine and sodium bicarbonate supplemented with 10% fetal bovine serum (FBS, Gibco) and 1% penicillin-streptomycin. Cells were incubated at 37 °C with 5% CO2 and detached from the flask at 90% confluency using a 1X Trypsin-EDTA solution (Sigma-Aldrich). Cells were counted using the EVE automated cell counter (NanoEnTek) and seeded at 1 x 10^5 cells per mL in a 4 or 8 chamber µ-slide (ibidi) for cell imaging and left for 24 h at 37 °C. Cells were rinsed with 1X PBS (Gibco) and stained with B2P or B2PI at 10 µM and MB2P or MB2PI at 30 µM for 17 h. Cells were washed twice with PBS and covered with phenol red free RPMI medium (Gibco) for imaging. […]

CHO cells [2] = experiment: Phototoxicity, 470 nm LED, alamar blue assay; format: cell-based, Chinese Hamster; settings: 17 J/cm^2, 470 nm LED
Description: (§6) The phototoxicity of the BODIPY's were assessed to compare the light induced toxicity of the iodinated compounds with their non‐iodinated counterparts. CHO and MCF‐7 cells were treated with B2P, B2PI, MB2P, and MB2PI in a concentration range from 0.10–1 μM for 17 h, the wells were decanted and filled with 100 μL phenol red free media prior to irradiation with a 470 nm LED (17 J/cm^2). Cell viability was determined using the alamar blue cell viability assay and % viability was calculated relative to untreated control wells.
(§7) Dark‐ and photo‐toxicity studies were performed by seeding CHO and MCF‐7 cells in clear 96‐well plates (Nunc) and treating with varying concentrations of B2P, MB2P, B2PI and MB2PI. Phototoxicity experiments were carried out using a 470 nm LED. For hypoxic phototoxicity studies, hypoxia was mimicked by adding CoCl2 to the cells prior to irradiation. Cell viability was determined using the alamar blue assay and absorbance measured with a BMG LABTECH CLARIOstar plate reader. […]
(§8) For 24 h dark toxicity studies, 50, 10, 5 and 1 µM stock concentrations of B2P, B2PI, MB2P and MB2PI were prepared in media to a final DMSO concentration of ≤1%. 100 µL of each concentration was added to the wells in triplicate and the plates incubated for 24 h in the dark at 37°C. Cell viability of all plate-based studies was assessed using the alamar blue assay. A 10% Resazurin-media solution (alamarBlue, Invitrogen) was added to the wells and incubated for 5 h in the absence of light. Absorbance was measured using a BMG LABTECH CLARIOstar plate reader at 570 nm and 600 nm (corrected for background subtraction). Cell viability is presented as a percentage (%) compared to untreated control wells. Plates were performed in triplicate.
(§9) Phototoxicity and dark control plates were performed by incubating CHO or MCF-7 cells with B2P, B2PI, MB2P and MB2PI for 17 h to allow uptake, emptying the wells, replacing with phenol red free media, and irradiating at a total dose of 17 ± 1.64 J/cm2 (2 h at 2.37 ± 0.23 mW/cm2) using a 470 nm LED (TeleOpto LEDA-X LED driver and array). Control plates were incubated in the dark during the irradiation period (2 h). After irradiation, the cells were incubated in the dark overnight to allow for cell recovery. Irradiation conditions were tested on untreated cells to confirm cells remained viable at this dose before any experiments were performed and each phototoxicity plate included untreated test wells for cell viability comparison. Viability was determined using the alamar blue assay as per the cytotoxicity

MCF‐7 cells [3] = experiment: Cellular uptake and co-localisation by confocal microscopy; format: cell-based; settings: ER Tracker 1 µM, 45 min
Description: as §1, §2, §3, §4, §5

MCF‐7 cells [4] = experiment: Phototoxicity, 470 nm LED, alamar blue assay; format: cell-based; settings: for Photo Index (PI), ratio of dark IC50 to light IC50: 17 J/cm^2, 470 nm LED; for IC50: Homo sapiens, MCF7, light or radiation study, 17 h incubation, 470 nm LED, 17±1.64 J/cm^2 (2.5 mW/cm^2 for 2 h)
Description: as §6, §7, §8, §9

Which “Pearson Coefficient (r) with ER Tracker Blue/White” value (CHO cells [1]) does the source give for CC1=C(I)C(C)=[N+]2C1=C(c1ccccc1)c1c(C)c(-c3ccc4c5cccc6cccc(c7cccc3c74)c65)c(C)n1[B-]2(F)F [B2PI] here?
The value was 0.46 ± 0.04 and ~0.5.

What about the “Photo Index (PI), ratio of dark IC50 to light IC50” value (shortened to “Photo Index (PI), ratio”) (CHO cells [2]) of the same compound?
Its value is > 87.

What about the “Pearson Coefficient (r) with ER Tracker Blue/White” value (MCF‐7 cells [3]) of the same compound?
Its value is 0.19 ± 0.05.

And the “Photo Index (PI), ratio” value (MCF‐7 cells [4])?
The value was > 213.

CC1=CC(C)=[N+]2C1=C(c1ccccc1)c1c(C)c(-c3ccc4c5cccc6cccc(c7cccc3c74)c65)c(C)n1[B-]2(F)F [B2P] was tested. Which “Pearson Coefficient (r) with ER Tracker Blue/White” value (CHO cells [1]) did it give?
Its value is 0.17 ± 0.06.

What about the “Photo Index (PI), ratio” value (CHO cells [2]) of the same compound?
Its value is > 76.

And the “Pearson Coefficient (r) with ER Tracker Blue/White” value (MCF‐7 cells [3])?
The value was 0.14 ± 0.07.

What about the “Photo Index (PI), ratio” value (MCF‐7 cells [4]) of the same compound?
The value was > 182.

What about the IC50 (MCF‐7 cells [4]) of the same compound?
Its IC50 is 0.274 µM.

CC1=C(c2ccc3c4cccc5cccc(c6cccc2c63)c54)C(C)=[N+]2C1=C(c1c(C)cc(C)cc1C)c1c(C)c(I)c(C)n1[B-]2(F)F [MB2PI] was tested. Which “Pearson Coefficient (r) with ER Tracker Blue/White” value (CHO cells [1]) did it give?
Its value is 0.46 ± 0.01 and ~0.5.

And the “Photo Index (PI), ratio” value (CHO cells [2])?
The value was > 132.

And the “Pearson Coefficient (r) with ER Tracker Blue/White” value (MCF‐7 cells [3])?
Its value is 0.53 ± 0.04 and ~0.5.

What about the “Photo Index (PI), ratio” value (MCF‐7 cells [4]) of the same compound?
Its value is > 218.

What about the IC50 (MCF‐7 cells [4]) of the same compound?
Its IC50 is 0.229 µM.

With CC1=C(c2ccc3c4cccc5cccc(c6cccc2c63)c54)C(C)=[N+]2C1=C(c1c(C)cc(C)cc1C)c1c(C)cc(C)n1[B-]2(F)F [MB2P] as the compound, how does the “Pearson Coefficient (r) with ER Tracker Blue/White” value (CHO cells [1]) read?
The value was 0.56 ± 0.02 and ~0.5.

What about the “Photo Index (PI), ratio” value (CHO cells [2]) of the same compound?
The value was > 64.

And the “Pearson Coefficient (r) with ER Tracker Blue/White” value (MCF‐7 cells [3])?
The value was 0.54 ± 0.04 and ~0.5.

And the “Photo Index (PI), ratio” value (MCF‐7 cells [4])?
Its value is > 109.

And the IC50 (MCF‐7 cells [4])?
Its IC50 is 0.457 µM.
